According to paper PMC7937321 (Genes and Environment, 2021):

Key:
TK6 cells = test: Cytotoxicity in the TK6 assay (CE, RS, RSG, RTG)
Protocol: Briefly, test substances were dissolved in an appropriate solvent (DMSO or ethanol) and then serially diluted to prepare final concentrations. […] The 4 h and 24 h treatments were conducted by shaking and static exposures, respectively. After treatment with test substances, cells were centrifuged (1000 rpm, 5 min), supernatants were removed, and cells were washed with a serum-free medium or Hank’s Balanced Salt Solution. After centrifugation (1000 rpm, 5 min) to remove the supernatant, cells (2 × 10^7 cells) were dispersed in an RPMI medium containing 10% serum, and cell concentration was measured. Treated cells were cultured at 37 °C with 5% CO2 condition and used for TK6 assays. At that time, to calculate the cloning efficiency (CE) (Eq. 1), the cells were cultured in a 96-well microplate at a concentration of about 1.6 cells/well for 2 weeks.
CE, the cell colony formation rate, was calculated using Eq. 1 according to the Poisson distribution equation. EW was the number of wells without colonies, and TW was the total number of wells. N was the average number of cells per well (N = 1.6). 1 CE=−lnEW/TW/N
Additionally, CE was adjusted by the following calculation (Eq. 2) due to cell loss when exposure caused cytotoxicity. “The number of cells at the end of the treatment” was the number of cells obtained after centrifugation at the end of the treatment in the above-described exposure treatment of the test substance. The “cell number at the start of treatment” was 2 × 10^7. 2 AdjustedCE=CE×number of cellsatendof treatment/number of cellsatthe start of treatment
CE0 seeding, in which cells were seeded immediately after treatment, and CE3 seeding, in which cells were seeded 3 days after treatment, to examine cell viability in the TK6 assay described below. The relative cell viability RS0 (%) just after the treatment with the test substance was calculated from CE0, following Eq. 3. The survival rate of the negative control group was defined as 100%. 3 RS0%=adjusted CE0 of treatment culture/adjusted CE0 of solvent control×100
The TK6 assay is conducted between 20 and 10% RS0 as a maximum dose if cytotoxicity is observed. […] When the main TK6 assay was difficult to conduct under the condition of RS0 values from 20 to 10%, the test was conducted between 20 and 10% relative total growth (RTG), described later, as a maximum dose.
Besides RS0, relative suspension growth (RSG) and RTG as other cytotoxicity indices (Eq. 4) were used. When cells were cultured for 3 days after treatment with the test substance, suspension cell growth ratio 1 (SG1) was the growth ratio from day 0 to day 1 (cell concentration on day 1/cell concentration on day 0). The suspension cell growth ratio 2 (SG2) was the growth ratio from day 1 to day 2 (cell concentration on day 2/cell concentration on day 1). The RSG value was calculated by dividing the total SG value of the untreated group for 3 days by the total SG value of the treated group for the same 3 days (Eq. 4).
On the third day of culture, CE3 plates for determining plating efficiency and mutant frequency (MF) plates for mutation detection were prepared. CE3 plates were seeded in 96-well microplates at a concentration of about 1.6 cells/well.

[1] = tested on: human lymphoblastoid TK6 cells, thymidine kinase gene; test: TK gene mutation assay (TK6 assay, OECD TG490)
Protocol: In principle, this collaborative study conducted the treatment of test substances, the dose finding, and the main test of TK6 assays, according to the OECD Guideline TG490 [17]. […] Briefly, test substances were dissolved in an appropriate solvent (DMSO or ethanol) and then serially diluted to prepare final concentrations. […] The 4 h and 24 h treatments were conducted by shaking and static exposures, respectively. After treatment with test substances, cells were centrifuged (1000 rpm, 5 min), supernatants were removed, and cells were washed with a serum-free medium or Hank’s Balanced Salt Solution. After centrifugation (1000 rpm, 5 min) to remove the supernatant, cells (2 × 10^7 cells) were dispersed in an RPMI medium containing 10% serum, and cell concentration was measured. Treated cells were cultured at 37 °C with 5% CO2 condition and used for TK6 assays. At that time, to calculate the cloning efficiency (CE) (Eq. 1), the cells were cultured in a 96-well microplate at a concentration of about 1.6 cells/well for 2 weeks.
The TK6 assay is conducted between 20 and 10% RS0 as a maximum dose if cytotoxicity is observed. If no precipitate or limiting cytotoxicity was observed, the maximum dose was the lowest concentration among 10 mM, 2 mg/mL, or 2 μL/mL of the test substance. When the main TK6 assay was difficult to conduct under the condition of RS0 values from 20 to 10%, the test was conducted between 20 and 10% relative total growth (RTG), described later, as a maximum dose.
On the third day of culture, CE3 plates for determining plating efficiency and mutant frequency (MF) plates for mutation detection were prepared. CE3 plates were seeded in 96-well microplates at a concentration of about 1.6 cells/well. The MF plates were seeded in 96-well microplates at 40,000 cells/well in the presence of 3 μg/mL of trifluorothymidine (Sigma Aldrich).
Mutant colonies in MF plates were calculated using Eq. 7 using the Poisson distribution. EW was the number of wells without colonies, and TW was the total number of wells. N was the average number of cells per well (N = 40,000 in this study). The data were statistically analyzed by Omori’s method, a modified Dunnett’s procedure for identifying clear negatives, a Simpson–Margolin procedure for detecting downturn data, and a trend test to evaluate the dose dependency [42, 43]. The acceptability criterion for the test was that the MF value of the positive control group of each laboratory was increased with statistical significance compared with that of the concurrent negative control group.

[2] = TK6, short treatment -S9 mix, 250 μg/mL
[3] = TK6, short treatment -S9 mix, 500 μg/mL
[4] = TK6, short treatment -S9 mix, 1000 μg/mL
[5] = TK6, short treatment -S9 mix, 2000 μg/mL
[6] = dose 250 μg/mL, +S9 mix, short treatment
[7] = dose 250 μg/mL, -S9 mix, 24 h treatment
[8] = dose 500 μg/mL, +S9 mix, short treatment
[9] = dose 500 μg/mL, -S9 mix, 24 h treatment
[10] = dose 1000 μg/mL, +S9 mix, short treatment
[11] = dose 1000 μg/mL, -S9 mix, 24 h treatment
[12] = dose 2000 μg/mL, +S9 mix, short treatment
[13] = dose 2000 μg/mL, -S9 mix, 24 h treatment
[14] = Short treatment, +S9 mix, 3.00 μg/mL
[15] = Short treatment, +S9 mix, 3.00 μg/mL, Day 0
[16] = dose 3.00 μg/mL, short treatment, +S9 mix
[17] = short treatment, +S9 mix, Day 0, positive control, dose 10.00 μg/mL
[18] = short treatment, +S9 mix, positive control, dose 10.00 μg/mL

Cc1c(N)cccc1N [2,6-DAT]
Adjusted CE0(%) (TK6 cells; [2]): 52.1%
CE0 (%), cell viability on Day 0 (TK6 cells; [2]): 53.2%
CE3 (%), cell viability on Day 3 (TK6 cells; [2]): 116.0%
RS0 (%) (TK6 cells; [2]): 75.5%
RSG (TK6 cells; [2]): 0.717
CE3 (TK6 cells; TK6, short treatment -S9 mix, 250 μg/mL, as fraction): 1.160
Adjusted CE0(%) (TK6 cells; [3]): 49.9%
CE0 (%), cell viability on Day 0 (TK6 cells; [3]): 48.8%
CE3 (%), cell viability on Day 3 (TK6 cells; [3]): 104.6%
RS0 (%) (TK6 cells; [3]): 72.4%
RSG (TK6 cells; [3]): 0.788
CE3 (TK6 cells; TK6, short treatment -S9 mix, 500 μg/mL, as fraction): 1.046
Adjusted CE0(%) (TK6 cells; [4]): 40.8%
CE0 (%), cell viability on Day 0 (TK6 cells; [4]): 40.8%
CE3 (%), cell viability on Day 3 (TK6 cells; [4]): 92.1%
RS0 (%) (TK6 cells; [4]): 59.2%
RSG (TK6 cells; [4]): 0.679
CE3 (TK6 cells; TK6, short treatment -S9 mix, 1000 μg/mL, as fraction): 0.921
Adjusted CE0(%) (TK6 cells; [5]): 26.2%
CE0 (%), cell viability on Day 0 (TK6 cells; [5]): 28.3%
CE3 (%), cell viability on Day 3 (TK6 cells; [5]): 112.0%
RS0 (%) (TK6 cells; [5]): 38.0%
RSG (TK6 cells; [5]): 0.616
CE3 (TK6 cells; TK6, short treatment -S9 mix, 2000 μg/mL, as fraction): 1.120
Adjusted CE0 (TK6 cells; [6]): 75.0%
CE0 (cell viability on Day 0) (TK6 cells; [6]): 72.7%
CE3 (cell viability on Day 3) (TK6 cells; [6]): 81.6%
RS0 (TK6 cells; [6]): 80.9%
RSG (TK6 cells; [6]): 0.721
CE3 (TK6 cells; dose 250 μg/mL, +S9 mix, short treatment, as fraction): 0.816
Adjusted CE0 (TK6 cells; [7]): 51.3%
CE3 (cell viability on Day 3) (TK6 cells; [7]): 95.0%
RS0 (TK6 cells; [7]): 57.2%
RSG (TK6 cells; [7]): 0.982
CE3 (TK6 cells; dose 250 μg/mL, -S9 mix, 24 h treatment, as fraction): 0.950
Adjusted CE0 (TK6 cells; [8]): 70.6%
CE0 (cell viability on Day 0) (TK6 cells; [8]): 68.7%
CE3 (cell viability on Day 3) (TK6 cells; [8]): 86.6%
RS0 (TK6 cells; [8]): 76.2%
RSG (TK6 cells; [8]): 0.855
CE3 (TK6 cells; dose 500 μg/mL, +S9 mix, short treatment, as fraction): 0.866
Adjusted CE0 (TK6 cells; [9]): 25.3%
CE0 (cell viability on Day 0) (TK6 cells; [9]): 36.0%
RS0 (TK6 cells; [9]): 28.1%
RSG (TK6 cells; [9]): 0.472
CE3 (TK6 cells; dose 500 μg/mL, -S9 mix, 24 h treatment, as fraction): 1.160
Adjusted CE0 (TK6 cells; [10]): 45.8%
CE0 (cell viability on Day 0) (TK6 cells; [10]): 43.3%
CE3 (cell viability on Day 3) (TK6 cells; [10]): 95.0%
RS0 (TK6 cells; [10]): 49.5%
RSG (TK6 cells; [10]): 0.544
CE3 (TK6 cells; dose 1000 μg/mL, +S9 mix, short treatment, as fraction): 0.950
Adjusted CE0 (TK6 cells; [11]): 25.1%
CE3 (cell viability on Day 3) (TK6 cells; [11]): 101.2%
RS0 (TK6 cells; [11]): 28.0%
RSG (TK6 cells; [11]): 0.453
CE3 (TK6 cells; dose 1000 μg/mL, -S9 mix, 24 h treatment, as fraction): 1.012
Adjusted CE0 (TK6 cells; [12]): 31.8%
CE0 (cell viability on Day 0) (TK6 cells; [12]): 31.5%
CE3 (cell viability on Day 3) (TK6 cells; [12]): 84.1%
RS0 (TK6 cells; [12]): 34.3%
RSG (TK6 cells; [12]): 0.246
CE3 (TK6 cells; dose 2000 μg/mL, +S9 mix, short treatment, as fraction): 0.841
Adjusted CE0 (TK6 cells; [13]): 20.5%
CE0 (cell viability on Day 0) (TK6 cells; [13]): 25.3%
CE3 (cell viability on Day 3) (TK6 cells; [13]): 108.2%
RS0 (TK6 cells; [13]): 22.8%
RSG (TK6 cells; [13]): 0.237
CE3 (TK6 cells; dose 2000 μg/mL, -S9 mix, 24 h treatment, as fraction): 1.082
%SG [1, 2]: 77.8%
Mut. freq. (×10-6) N-MF [1, 2]: 2.2 ×10-6
Mut. freq. (×10-6) S-MF [1, 2]: 7.9 ×10-6
Mut. freq. (×10-6) T-MF [1, 2]: 10.1 ×10-6
%SG [1, 3]: 86.8%
Mut. freq. (×10-6) N-MF [1, 3]: 0.9 ×10-6
Mut. freq. (×10-6) S-MF [1, 3]: 5.8 ×10-6
Mut. freq. (×10-6) T-MF [1, 3]: 6.7 ×10-6
%SG [1, 4]: 83.3%
Mut. freq. (×10-6) N-MF [1, 4]: 2.1 ×10-6
Mut. freq. (×10-6) S-MF [1, 4]: 10.3 ×10-6
Mut. freq. (×10-6) T-MF [1, 4]: 12.3 ×10-6
%SG [1, 5]: 78.9%
Mut. freq. (×10-6) N-MF [1, 5]: 1.9 ×10-6
Mut. freq. (×10-6) S-MF [1, 5]: 7.3 ×10-6
Mut. freq. (×10-6) T-MF [1, 5]: 9.2 ×10-6
%SG [1, 6]: 74.2%
Mut. freq. N-MF [1, 6]: 2.7 ×10-6
Mut. freq. S-MF [1, 6]: 7.7 ×10-6
Mut. freq. T-MF [1, 6]: 10.3 ×10-6
%SG [1, 7]: 76.3%
Mut. freq. N-MF [1, 7]: 3.4 ×10-6
Mut. freq. S-MF [1, 7]: 10.8 ×10-6
Mut. freq. T-MF [1, 7]: 14.2 ×10-6
%SG [1, 8]: 83.1%
Mut. freq. N-MF [1, 8]: 1.5 ×10-6
Mut. freq. S-MF [1, 8]: 7.6 ×10-6
Mut. freq. T-MF [1, 8]: 9.1 ×10-6
%SG [1, 9]: 79.9%
Mut. freq. N-MF [1, 9]: 3.0 ×10-6
Mut. freq. S-MF [1, 9]: 11.9 ×10-6
Mut. freq. T-MF [1, 9]: 14.9 ×10-6
%SG [1, 10]: 79.2%
Mut. freq. N-MF [1, 10]: 1.8 ×10-6
Mut. freq. S-MF [1, 10]: 7.0 ×10-6
Mut. freq. T-MF [1, 10]: 8.9 ×10-6
%SG [1, 11]: 87.5%
Mut. freq. N-MF [1, 11]: 3.4 ×10-6
Mut. freq. S-MF [1, 11]: 24.1 ×10-6
Mut. freq. T-MF [1, 11]: 27.5 ×10-6
%SG [1, 12]: 80.8%
Mut. freq. N-MF [1, 12]: 3.4 ×10-6
Mut. freq. S-MF [1, 12]: 14.5 ×10-6
Mut. freq. T-MF [1, 12]: 17.9 ×10-6
%SG [1, 13]: 84.3%
Mut. freq. N-MF [1, 13]: 3.4 ×10-6
Mut. freq. S-MF [1, 13]: 18.1 ×10-6
Mut. freq. T-MF [1, 13]: 21.4 ×10-6

O=P1(N(CCCl)CCCl)NCCCO1 (centres unmarked) [CP, Cyclophosphamide, reference compound]
Daily cell growth Day 1×2×3 (TK6 cells; [14]): 7.35
RSG (TK6 cells; [14]): 0.385
Adjusted CE0 (TK6 cells; [15]): 34.5%
CE0 (TK6 cells; [15]): 36.0%
RS0 (TK6 cells; [15]): 43.1%
CE3 (TK6 cells; Short treatment, +S9 mix, 3.00 μg/mL, Day 3): 66.7%
CE3 (TK6 cells; [16]): 0.667
RS (TK6 cells; [16]): 43.1
Adjusted CE0 (TK6 cells; [17]): 11.6%
CE0 (TK6 cells; [17]): 10.6%
RS0 (TK6 cells; [17]): 12.2%
CE3 (TK6 cells; short treatment, +S9 mix, Day 3, positive control, dose 10.00 μg/mL): 68.7%
CE3 (TK6 cells; short treatment, +S9 mix, as fraction, positive control, dose 10.00 μg/mL): 0.687
RSG (TK6 cells; [18]): 0.063
%SG [1, 16]: 75.7%
Mut. freq. (×10-6) N-MF [1, 16]: 14.0 ×10-6
Mut. freq. (×10-6) S-MF [1, 16]: 43.8 ×10-6
Mut. freq. (×10-6) T-MF [1, 16]: 57.8 ×10-6
mutant frequency of the concurrent positive control (mean) ([1]; short treatment with S9 mix, 2.5–3 μg/mL): 28.6 × 10^− 6
%SG [1, 18]: 50.8%
Mut. freq. N-MF [1, 18]: 10.0 ×10-6
Mut. freq. S-MF [1, 18]: 10.3 ×10-6
Mut. freq. T-MF [1, 18]: 20.3 ×10-6
